Earlier results as cited in patent US20230064685A1, “METHODS AND COMPOSITIONS TO INHIBIT SYMPTOMS ASSOCIATED WITH VEISALGIA” (SEN-JAM PHARMACEUTICAL LLC, priority 2015, published 2023).

What was measured:
[1] = system: hangover symptom of thirst; conditions: each drug alone; general statement, no test described
[2] = system: alcohol hangover; conditions: randomized controlled trials reviewed by Pittler et al. 2005

For CC(C)(C(=O)O)c1ccc(C(O)CCCN2CCC(C(O)(c3ccccc3)c3ccccc3)CC2)cc1 (racemic) [fexofenadine, (±)-4-[1 hydroxy-4-[4-(hydroxydiphenylmethyl)-1-piperidinyl]-butyl]-α, α-dimethyl benzeneacetic acid], the “effect or side effect of reducing thirst” value [1] is listed as “neither naproxen nor fexofenadine, alone, has shown any effect or side effect of reducing thirst”.
For COc1ccc2cc(C(C)C(=O)O)ccc2c1 (stereo not drawn) [naproxen, 6-methoxy-α-methyl-2-naphthaleneacetic acid], the “effect or side effect of reducing thirst” value [1] is listed as “neither naproxen nor fexofenadine, alone, has shown any effect or side effect of reducing thirst”.
For Cc1c(Cl)cccc1Nc1ccccc1C(=O)O [tolfenamic acid], the “intergroup differences for overall symptom scores and individual symptoms” value [2] is listed as “Significant intergroup differences”.
In the case of CCCCC/C=C\C/C=C\C/C=C\CCCCC(=O)O [γ linolenic acid from B officinalis, γ linolenic acid], the “intergroup differences for overall symptom scores and individual symptoms” value [2] is listed as “Significant intergroup differences”.
